Tested on: Concord grape vines
Assay: Bud break and shoot growth of potted dormant Concord grape vines in the greenhouse (Example 1)
Format: in vivo
Details: for % bud break (vines with at least one bud break): hydrogen cyanamide 10,000 ppm, 17-0-0 197,100 ppm, 15-0-0 239,060 ppm, ACC 1,000 ppm
From the text: An aqueous 50% hydrogen cyanamide solution (Sigma-Aldrich, St. Louis, Mo. USA) was used as the source of hydrogen cyanamide. The commercial product, Dormex® contains 50% hydrogen cyanamide (w/v) in water.
Erger® was used as the source of 15-0-0 fertilizer. (Erger is a registered trademark of Valagro S.P.A., Italy and is available from Helena Chemical Company, Collierville, Tenn., USA). Erger® contains 15% total nitrogen as 3.1% ammoniacal nitrogen, 5.8% nitrate nitrogen and 6.1% urea nitrogen and 3.3% calcium derived from ammonium nitrate, calcium nitrate and urea. As used herein, the term “15-0-0 fertilizer” refers to the Erger® formulation above and all formulations described in International PCT application publication WO/2001/037653A2 by Valagro S.P.A., Italy, which is incorporated, herein, in its entirety.
CAN-17 was used as the source of 17-0-0 fertilizer. CAN-17 contains 17% total nitrogen as 4.6% ammonium nitrogen and […] nitrate nitrogen and 1.3% urea nitrogen and 8.8% calcium derived from ammonium nitrate and calcium nitrate. CAN-17 is available from J.R. Simplot Company (Boise, Id., USA).
To assess the ability of mixtures of the invention to promote and synchronize bud break these mixtures were applied to Concord grape vines and examined for bud break (initiation of growth) and subsequent shoot development. Specifically, 1 year old dormant bare rooted Concord grape vines were planted in pots containing Pro-Mix® BX potting soil (Pro-Mix is a registered trademark of and available from Premier Horticulture Ltd.) and pruned to 5 nodes on a single shoot. Aqueous solutions of thidiazuron, hydrogen cyanamide, 15-0-0 fertilizer, 17-0-0 fertilizer and 1-aminocyclopropane-1-carboxylic acid (“ACC”), and mixtures thereof were each applied individually or sequentially or co-applied to the first-year wood of separate Concord grape vines. Plants were grown in the greenhouse for 49 days and evaluated for percent of vines showing bud break, or relief from dormancy, periodically between 7 days and the conclusion of the experiment. […] At 49 days after treatment (DAT), the plants were sacrificed and measured for total number of flower clusters, total new shoot length, longest new shoot, combined new shoot fresh weight and combined new shoot dry weight. New shoot growth is the growth arising from the dormant buds not including the woody growth that was planted and gave rise to the new growth.
Synergy is calculated by the Abbott method: %Cexp=A+B−(AB/100), where % Cexp is the expected efficacy and in which A and B are the speed of bud break or shoot length or shoot weight given by the single active ingredients. If the ratio between the experimentally observed efficacy of the mixture Cobs and the expected efficacy of the mixture is greater than 1, synergistic interactions are present in the mixture” (Gisi, Synergistic Interaction of Fungicides in Mixtures, The American Phytopathological Society, 86:11, 1273-1279,1996).

[1] = 49 days post treatment, thidiazuron ppm as in label, other concentrations as in Table 1

Compound: NC1(C(=O)O)CC1 [ACC, 1-aminocyclopropane-1-carboxylic acid]
- % bud break (vines with at least one bud break) (7 DAT, thidiazuron 300 ppm unless label states other): 0%
- % bud break (vines with at least one bud break) (10 DAT, thidiazuron 300 ppm unless label states other): 11.1%
- % bud break (vines with at least one bud break) (13 DAT, thidiazuron 300 ppm unless label states other): 11.1%
- % bud break (vines with at least one bud break) (15 DAT, thidiazuron 300 ppm unless label states other): 11.1%
- % bud break (vines with at least one bud break) (17 DAT, thidiazuron 300 ppm unless label states other): 11.1%
- % bud break (vines with at least one bud break) (20 DAT, thidiazuron 300 ppm unless label states other): 11.1%
- % bud break (vines with at least one bud break) (22 DAT, thidiazuron 300 ppm unless label states other): 22.2%
- % bud break (vines with at least one bud break) (24 DAT, thidiazuron 300 ppm unless label states other): 22.2%
- % bud break (vines with at least one bud break) (27 DAT, thidiazuron 300 ppm unless label states other): 22.2%
- % bud break (vines with at least one bud break) (29 DAT, thidiazuron 300 ppm unless label states other): 33.3%
- % bud break (vines with at least one bud break) (31 DAT, thidiazuron 300 ppm unless label states other): 33.3%
- % bud break (vines with at least one bud break) (34 DAT, thidiazuron 300 ppm unless label states other): 55.6%
- % bud break (vines with at least one bud break) (36 DAT, thidiazuron 300 ppm unless label states other): 66.7%
- % bud break (vines with at least one bud break) (38 DAT, thidiazuron 300 ppm unless label states other): 77.8%
- % bud break (vines with at least one bud break) (41 DAT, thidiazuron 300 ppm unless label states other): 77.8%
- % bud break (vines with at least one bud break) (43 DAT, thidiazuron 300 ppm unless label states other): 77.8%
- % bud break (vines with at least one bud break) (49 DAT, thidiazuron 300 ppm unless label states other): 77.8%
- Combined Shoot Dry Weight [1]: 1.2 g
- Combined Shoot Fresh Weight [1]: 7.1 g
- Longest Shoot Length [1]: 27.9 cm
- Total # of Flower Clusters [1]: 0.1
- Total Shoot Length [1]: 28.9 cm
- Dry Weight (g)/25% Bud Break to Harvest (d) (combined shoot dry weight at 49 DAT normalised by days from 25% bud break to harvest): 0.06 g/day
- Dry Weight (g)/50% Bud Break to Harvest (d) (combined shoot dry weight at 49 DAT normalised by days from 50% bud break to harvest): 0.08 g/day
- Fresh Weight (g)/50% Bud Break to Harvest (d) (combined shoot fresh weight at 49 DAT normalised by days from 50% bud break to harvest): 0.47 g/day
- 50% Bud Break to Harvest (harvest at day 49, thidiazuron 300 ppm unless label states other, other concentrations as in Table 1): 15 days
- Initial to 50% Bud Break (synchrony of bud break, thidiazuron 300 ppm unless label states other, other concentrations as in Table 1): 25 days
- 25% Bud Break (DAT) (time to 25% bud break, thidiazuron 300 ppm unless label states other, other concentrations as in Table 1): 28 DAT
- 50% Bud Break (DAT) (time to 50% bud break, thidiazuron 300 ppm unless label states other, other concentrations as in Table 1): 34 DAT
